In ChEMBL document CHEMBL1201862, “PubChem BioAssay data set” (2004):
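Protocol summary: plate cells (96-well), add compound at 5 concentrations, incubate 48 h, interpolate endpoints linearly. At the GI50, growth is halved.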 Calls of active or inactive are those of the source. No stated cut-off is given here; in the data, active = GI50 up to about 1.1 µM and inactive = higher.

Experiments:
Test in all cases: growth of human tumour cells (NCI), 48 h
[1] = tested on: 786-0
[2] = tested on: A498
[3] = tested on: A549
[4] = tested on: ACHN
[5] = tested on: COLO 205
[6] = tested on: EKVX
[7] = tested on: Hs-578T
[8] = tested on: NCI-H23
[9] = tested on: NCI-H522
[10] = tested on: PC-3
[11] = tested on: SK-MEL-2
[12] = tested on: SK-MEL-5
[13] = tested on: T47D
[14] = tested on: TK-10
[15] = tested on: UACC-257
[16] = tested on: HOP-92
[17] = tested on: MDA-MB-435
[18] = tested on: Malme-3M
[19] = tested on: RXF 393
[20] = tested on: RPMI-8226

## C=C(C)C(=O)N1c2ccc(OC)cc2CC1C(=O)OCC (stereo not drawn)
[1]
  GI50: > 100 µM (inactive)
[2]
  GI50: > 100 µM (inactive)
[3]
  GI50: > 100 µM (inactive)
[4]
  GI50: > 100 µM (inactive)
[5]
  GI50: > 100 µM (inactive)
[6]
  GI50: > 100 µM (inactive)
[7]
  GI50: > 100 µM (inactive)
[8]
  GI50: > 100 µM (inactive)
[9]
  GI50: > 100 µM (inactive)
[10]
  GI50: > 100 µM (inactive)
[11]
  GI50: > 100 µM (inactive)
[12]
  GI50: > 100 µM (inactive)
[13]
  GI50: 26.7 µM (inactive)
[14]
  GI50: > 100 µM (inactive)
[15]
  GI50: > 100 µM (inactive)

## COc1ccc(N2C(=O)CS(=O)(=O)C2c2cccc(Oc3ccccc3)c2)cc1 (stereo not drawn)
[1]
  GI50: 4.7 µM (inactive)
[3]
  GI50: 6.58 µM (inactive)
[4]
  GI50: 4.92 µM (inactive)
[5]
  GI50: 3.29 µM (inactive)
[6]
  GI50: 9.91 µM (inactive)
[16]
  GI50: 7.52 µM (inactive)
[7]
  GI50: 3.78 µM (inactive)
[17]
  GI50: 0.959 µM (active)
[18]
  GI50: 7.74 µM (inactive)
[8]
  GI50: 4.99 µM (inactive)
[9]
  GI50: 2.62 µM (inactive)
[10]
  GI50: 3.65 µM (inactive)
[19]
  GI50: 4.04 µM (inactive)
[11]
  GI50: 3.56 µM (inactive)
[12]
  GI50: 4.57 µM (inactive)
[13]
  GI50: 7.45 µM (inactive)
[14]
  GI50: 2.65 µM (inactive)
[15]
  GI50: 2.74 µM (inactive)

## CSCCC(NC(c1ccccc1)c1ccccc1)[PH](=O)O (stereo not drawn)
[1]
  GI50: > 100 µM (inactive)
[3]
  GI50: > 100 µM (inactive)
[4]
  GI50: > 100 µM (inactive)
[5]
  GI50: > 100 µM (inactive)
[6]
  GI50: > 100 µM (inactive)
[16]
  GI50: > 100 µM (inactive)
[7]
  GI50: > 100 µM (inactive)
[17]
  GI50: > 100 µM (inactive)
[18]
  GI50: > 100 µM (inactive)
[8]
  GI50: > 100 µM (inactive)
[9]
  GI50: > 100 µM (inactive)
[10]
  GI50: > 100 µM (inactive)
[20]
  GI50: > 100 µM (inactive)
[11]
  GI50: > 100 µM (inactive)
[12]
  GI50: > 100 µM (inactive)
[13]
  GI50: > 100 µM (inactive)
[14]
  GI50: > 100 µM (inactive)
[15]
  GI50: > 100 µM (inactive)

## O[C@@H]1C[C@H](Cl)c2c(Cl)sc(Cl)c21
[1]
  GI50: > 100 µM (inactive)
[3]
  GI50: > 100 µM (inactive)
[4]
  GI50: > 100 µM (inactive)
[5]
  GI50: > 100 µM (inactive)
[6]
  GI50: > 100 µM (inactive)
[7]
  GI50: > 100 µM (inactive)
[17]
  GI50: > 100 µM (inactive)
[18]
  GI50: > 100 µM (inactive)
[8]
  GI50: > 100 µM (inactive)
[9]
  GI50: > 100 µM (inactive)
[10]
  GI50: > 100 µM (inactive)
[20]
  GI50: > 100 µM (inactive)
[19]
  GI50: > 100 µM (inactive)
[11]
  GI50: > 100 µM (inactive)
[12]
  GI50: > 100 µM (inactive)
[13]
  GI50: 33.4 µM (inactive)
[14]
  GI50: > 100 µM (inactive)
[15]
  GI50: > 100 µM (inactive)

## CC(C)(C)NC(=O)N1N=C(c2ccccc2)C1c1ccccc1 (stereo not drawn)
[1]
  GI50: 15.7 µM (inactive)
[2]
  GI50: > 100 µM (inactive)
[3]
  GI50: 31.5 µM (inactive)
[4]
  GI50: 34.5 µM (inactive)
[5]
  GI50: 35.7 µM (inactive)
[6]
  GI50: 42.6 µM (inactive)
[16]
  GI50: 22.3 µM (inactive)
[7]
  GI50: 48.3 µM (inactive)
[18]
  GI50: 25.3 µM (inactive)
[8]
  GI50: 35.9 µM (inactive)
[9]
  GI50: 19.6 µM (inactive)
[10]
  GI50: 26.6 µM (inactive)
[20]
  GI50: 22.5 µM (inactive)
[19]
  GI50: 14 µM (inactive)
[12]
  GI50: 20.2 µM (inactive)
[13]
  GI50: 42.7 µM (inactive)
[14]
  GI50: 26 µM (inactive)
[15]
  GI50: 25.5 µM (inactive)

## CCC/C(Cl)=N\OC(=O)Nc1cccc(C(F)(F)F)c1
[1]
  GI50: 16 µM (inactive)
[2]
  GI50: 17.8 µM (inactive)
[3]
  GI50: 19.7 µM (inactive)
[4]
  GI50: 16.3 µM (inactive)
[5]
  GI50: 3.05 µM (inactive)
[6]
  GI50: 16.6 µM (inactive)
[7]
  GI50: 29.7 µM (inactive)
[18]
  GI50: 13.2 µM (inactive)
[8]
  GI50: 20.7 µM (inactive)
[9]
  GI50: 1.96 µM (inactive)
[10]
  GI50: 17.6 µM (inactive)
[20]
  GI50: 4.61 µM (inactive)
[19]
  GI50: 19.6 µM (inactive)
[11]
  GI50: 16.7 µM (inactive)
[12]
  GI50: 15.5 µM (inactive)
[13]
  GI50: 23.9 µM (inactive)
[14]
  GI50: 15.4 µM (inactive)
[15]
  GI50: 17.5 µM (inactive)

## CCCCn1c(CSc2ccc(Cl)cc2)c(C(=O)OCC)c2cc(OC)c(Br)cc21
[1]
  GI50: > 100 µM (inactive)
[2]
  GI50: > 100 µM (inactive)
[3]
  GI50: > 100 µM (inactive)
[4]
  GI50: > 100 µM (inactive)
[5]
  GI50: > 100 µM (inactive)
[6]
  GI50: > 100 µM (inactive)
[7]
  GI50: > 100 µM (inactive)
[17]
  GI50: > 100 µM (inactive)
[18]
  GI50: > 100 µM (inactive)
[8]
  GI50: > 100 µM (inactive)
[9]
  GI50: > 100 µM (inactive)
[10]
  GI50: > 100 µM (inactive)
[20]
  GI50: > 100 µM (inactive)
[11]
  GI50: > 100 µM (inactive)
[12]
  GI50: > 100 µM (inactive)
[13]
  GI50: > 100 µM (inactive)
[14]
  GI50: > 100 µM (inactive)
[15]
  GI50: > 100 µM (inactive)

## O=c1[nH]c(=O)n(CCOc2ccc(Cl)cc2)cc1Nc1ccccc1
[1]
  GI50: 44.3 µM (inactive)
[2]
  GI50: > 100 µM (inactive)
[3]
  GI50: > 100 µM (inactive)
[4]
  GI50: > 100 µM (inactive)
[5]
  GI50: > 100 µM (inactive)
[6]
  GI50: 71 µM (inactive)
[16]
  GI50: > 100 µM (inactive)
[7]
  GI50: 29.2 µM (inactive)
[17]
  GI50: > 100 µM (inactive)
[8]
  GI50: > 100 µM (inactive)
[10]
  GI50: > 100 µM (inactive)
[20]
  GI50: > 100 µM (inactive)
[19]
  GI50: > 100 µM (inactive)
[12]
  GI50: > 100 µM (inactive)
[15]
  GI50: > 100 µM (inactive)
